Measurements from ChEMBL document CHEMBL3621069 (Bioorg Med Chem Lett, 2015).

How the values were obtained:
[1] = AUClast in Sprague-Dawley rat at 10 mg/kg; assay type: ADME, organism-based; parameters: dose 10 mg/kg, time 0 - last; settings: in vivo
Salmonella typhimurium [2] = experiment: Genotoxicity in Salmonella typhimurium TA100 at 5000 µg/plate in presence of liver S9 fraction by Ames test; assay type: toxicity, organism-based; settings: salmonella enterica subsp. enterica serovar typhimurium
Escherichia coli [3] = experiment: Genotoxicity in Escherichia coli WP2 uvrA at 5000 µg/plate in absence of liver S9 fraction by Ames test; assay type: toxicity, organism-based
Salmonella typhimurium [4] = experiment: Mutagenicity in Salmonella typhimurium TA1537 at 5000 µg/plate in absence of liver S9 fraction by Ames test; assay type: toxicity, organism-based; settings: salmonella enterica subsp. enterica serovar typhimurium
Escherichia coli [5] = experiment: Genotoxicity in Escherichia coli WP2 uvrA at 5000 µg/plate in presence of liver S9 fraction by Ames test; assay type: toxicity, organism-based
Salmonella typhimurium [6] = experiment: Mutagenicity in Salmonella typhimurium TA1535 at 5000 µg/plate in presence of liver S9 fraction by Ames test; assay type: toxicity, organism-based; settings: salmonella enterica subsp. enterica serovar typhimurium
Salmonella typhimurium [7] = experiment: Mutagenicity in Salmonella typhimurium TA98 at 5000 µg/plate in absence of liver S9 fraction by Ames test; assay type: toxicity, organism-based; settings: salmonella enterica subsp. enterica serovar typhimurium
[8] = Stability in human liver microsomes; assay type: ADME; settings: read-out: Stability
Escherichia coli [9] = experiment: Mutagenicity in Escherichia coli WP2 uvrA at 5000 µg/plate in absence of liver S9 fraction by Ames test; assay type: toxicity, organism-based
Salmonella typhimurium [10] = experiment: Genotoxicity in Salmonella typhimurium TA98 at 5000 µg/plate in absence of liver S9 fraction by Ames test; assay type: toxicity, organism-based; settings: salmonella enterica subsp. enterica serovar typhimurium
Escherichia coli [11] = experiment: Mutagenicity in Escherichia coli WP2 uvrA at 5000 µg/plate in presence of liver S9 fraction by Ames test; assay type: toxicity, organism-based
Aurora kinase B = Aurora kinase B (Homo sapiens, UniProt Q96GD4); experiment: Inhibition of Aurora B kinase (unknown origin) pre-incubated for 30 mins at room temperature before substrate addition and measured 1 hr after substrate addition by cell free kinase assay
Sequence of Aurora kinase B (Q96GD4 whole entry): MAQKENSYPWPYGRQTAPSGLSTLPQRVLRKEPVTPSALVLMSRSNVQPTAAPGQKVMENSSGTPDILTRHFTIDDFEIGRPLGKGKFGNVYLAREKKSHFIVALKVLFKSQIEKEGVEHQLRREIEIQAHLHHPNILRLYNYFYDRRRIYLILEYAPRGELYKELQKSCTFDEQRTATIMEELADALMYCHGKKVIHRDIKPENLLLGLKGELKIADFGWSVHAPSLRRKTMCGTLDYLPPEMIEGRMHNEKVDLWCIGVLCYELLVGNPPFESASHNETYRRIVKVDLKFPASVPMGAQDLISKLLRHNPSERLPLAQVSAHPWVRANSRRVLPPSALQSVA

Salmonella typhimurium [12] = experiment: Genotoxicity in Salmonella typhimurium TA1535 at 5000 µg/plate in presence of liver S9 fraction by Ames test; assay type: toxicity, organism-based; settings: salmonella enterica subsp. enterica serovar typhimurium
[13] = Oral bioavailability in Sprague-Dawley rat at 10 mg/kg; assay type: ADME, organism-based; settings: in vivo
Plasma = experiment: Unbound fraction in human plasma; assay type: ADME, cell-free
Salmonella typhimurium [14] = experiment: Mutagenicity in Salmonella typhimurium TA98 at 5000 µg/plate in presence of liver S9 fraction by Ames test; assay type: toxicity, organism-based; settings: salmonella enterica subsp. enterica serovar typhimurium
Salmonella typhimurium [15] = experiment: Mutagenicity in Salmonella typhimurium TA100 at 5000 µg/plate in absence of liver S9 fraction by Ames test; assay type: toxicity, organism-based; settings: salmonella enterica subsp. enterica serovar typhimurium
[16] = Clearance in Sprague-Dawley rat at 10 mg/kg, po; assay type: ADME, organism-based; settings: in vivo
Salmonella typhimurium [17] = experiment: Genotoxicity in Salmonella typhimurium TA1537 at 5000 µg/plate in absence of liver S9 fraction by Ames test; assay type: toxicity, organism-based; settings: salmonella enterica subsp. enterica serovar typhimurium
[18] = target: T1, Tyrosine-protein kinase JAK3 (Homo sapiens, UniProt P52333); experiment: Inhibition of JAK3 (unknown origin) pre-incubated for 30 mins at room temperature before substrate addition and measured 1 hr after substrate addition by cell free kinase assay
T1 sequence (P52333 whole entry): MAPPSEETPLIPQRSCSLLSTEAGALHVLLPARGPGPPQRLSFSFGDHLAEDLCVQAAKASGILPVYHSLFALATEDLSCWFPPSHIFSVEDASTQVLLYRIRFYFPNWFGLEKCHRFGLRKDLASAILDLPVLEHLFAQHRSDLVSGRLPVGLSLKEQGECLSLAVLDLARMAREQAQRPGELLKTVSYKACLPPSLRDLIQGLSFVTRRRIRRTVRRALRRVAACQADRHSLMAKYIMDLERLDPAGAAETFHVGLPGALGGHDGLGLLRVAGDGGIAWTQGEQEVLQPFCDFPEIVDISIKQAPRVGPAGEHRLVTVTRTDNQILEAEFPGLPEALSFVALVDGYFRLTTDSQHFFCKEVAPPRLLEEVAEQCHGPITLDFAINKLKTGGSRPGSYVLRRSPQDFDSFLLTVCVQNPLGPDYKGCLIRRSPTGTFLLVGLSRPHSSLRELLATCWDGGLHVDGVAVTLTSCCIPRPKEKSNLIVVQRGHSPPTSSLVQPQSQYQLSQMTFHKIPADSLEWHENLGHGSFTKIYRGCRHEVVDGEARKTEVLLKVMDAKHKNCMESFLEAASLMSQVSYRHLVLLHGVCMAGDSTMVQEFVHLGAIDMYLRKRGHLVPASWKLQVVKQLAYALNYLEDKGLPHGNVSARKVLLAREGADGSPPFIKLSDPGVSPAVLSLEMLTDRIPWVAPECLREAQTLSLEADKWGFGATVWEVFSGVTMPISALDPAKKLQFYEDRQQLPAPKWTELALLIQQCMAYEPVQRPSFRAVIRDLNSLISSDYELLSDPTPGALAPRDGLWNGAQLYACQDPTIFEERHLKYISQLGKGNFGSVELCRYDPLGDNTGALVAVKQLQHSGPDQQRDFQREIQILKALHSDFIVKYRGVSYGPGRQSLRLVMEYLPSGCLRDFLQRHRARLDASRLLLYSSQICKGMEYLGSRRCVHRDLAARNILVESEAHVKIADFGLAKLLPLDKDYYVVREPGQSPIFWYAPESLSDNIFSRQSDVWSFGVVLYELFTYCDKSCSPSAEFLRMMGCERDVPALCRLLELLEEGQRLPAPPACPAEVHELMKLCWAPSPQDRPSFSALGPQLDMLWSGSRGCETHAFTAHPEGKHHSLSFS

Salmonella typhimurium [19] = experiment: Genotoxicity in Salmonella typhimurium TA1535 at 5000 µg/plate in absence of liver S9 fraction by Ames test; assay type: toxicity, organism-based; settings: salmonella enterica subsp. enterica serovar typhimurium
Salmonella typhimurium [20] = experiment: Genotoxicity in Salmonella typhimurium TA98 at 5000 µg/plate in presence of liver S9 fraction by Ames test; assay type: toxicity, organism-based; settings: salmonella enterica subsp. enterica serovar typhimurium
[21] = Terminal half life in Sprague-Dawley rat at 10 mg/kg, po; assay type: ADME, organism-based; settings: in vivo, read-out: beta t1/2 (converted)
[22] = Apparent permeability from apical to basolateral side in human Caco2 cells; assay type: ADME, cell-based; settings: Caco-2
Salmonella typhimurium [23] = experiment: Mutagenicity in Salmonella typhimurium TA1535 at 5000 µg/plate in absence of liver S9 fraction by Ames test; assay type: toxicity, organism-based; settings: salmonella enterica subsp. enterica serovar typhimurium
[24] = Inhibition of CYP450 (unknown origin); assay type: ADME, Homo sapiens
[25] = Apparent permeability from basolateral to apical side in human Caco2 cells; assay type: ADME, cell-based; settings: Caco-2
Salmonella typhimurium [26] = experiment: Mutagenicity in Salmonella typhimurium TA1537 at 5000 µg/plate in presence of liver S9 fraction by Ames test; assay type: toxicity, organism-based; settings: salmonella enterica subsp. enterica serovar typhimurium
Rattus norvegicus = experiment: Volume of distribution at steady state in Sprague-Dawley rat at 10 mg/kg, po; assay type: ADME, organism-based; settings: in vivo
Salmonella typhimurium [27] = experiment: Mutagenicity in Salmonella typhimurium TA100 at 5000 µg/plate in presence of liver S9 fraction by Ames test; assay type: toxicity, organism-based; settings: salmonella enterica subsp. enterica serovar typhimurium

SMILES | AUC(0-t) [1] | Activity (Salmonella typhimurium [2]) | Activity (Escherichia coli [3]) | Activity (Salmonella typhimurium [4]) | Activity (Escherichia coli [5]) | Activity (Salmonella typhimurium [6]) | Activity (Salmonella typhimurium [7]) | half-life [8] | Activity (Escherichia coli [9]) | Activity (Salmonella typhimurium [10]) | Activity (Escherichia coli [11]) | IC50 (Aurora kinase B) | Activity (Salmonella typhimurium [12]) | bioavailability [13] | Fu (Plasma) | Activity (Salmonella typhimurium [14]) | Activity (Salmonella typhimurium [15]) | CL/F [16] | Activity (Salmonella typhimurium [17]) | IC50 [18] | also measured
Cc1nn(-c2ccnc(Nc3ccc4c(c3)c(Cl)c(C)n4C)n2)cc1CN1CC(O)C1 | 3230 ng·h/mL | Non-toxic | Non-toxic | Non-toxic | Non-toxic | Non-toxic | Non-toxic | > 1 h | Non-toxic | Non-toxic | Non-toxic | 1710 nM | Non-toxic | 28.4% | < 0.4% | Non-toxic | Non-toxic | 26 mL/min/kg | Non-toxic | 78.1 nM | Activity (Salmonella typhimurium [19]): Non-toxic; Activity (Salmonella typhimurium [20]): Non-toxic; half-life [21]: 3.6 h; Papp A→B [22]: 2.7 ×10⁻⁶ cm/s; Activity (Salmonella typhimurium [23]): Non-toxic; IC50 [24]: > 10000 nM; Papp B→A [25]: 3.8 ×10⁻⁶ cm/s; Activity (Salmonella typhimurium [26]): Non-toxic; Vdss (Rattus norvegicus): 3.3 L/kg; Activity (Salmonella typhimurium [27]): Non-toxic
Cc1nn(-c2ccnc(Nc3ccc4c(c3)c(C)c(C)n4C)n2)cc1CN1CC(O)C1 | 4000 ng·h/mL | Non-toxic | Non-toxic | Non-toxic | Non-toxic | Non-toxic | Non-toxic | > 1 h | Non-toxic | Non-toxic | Non-toxic | 985 nM | Non-toxic | 61% | < 0.4% | Non-toxic | Non-toxic | 21 mL/min/kg | Non-toxic | 418 nM | Activity (Salmonella typhimurium [19]): Non-toxic; Activity (Salmonella typhimurium [20]): Non-toxic; half-life [21]: 3.4 h; Papp A→B [22]: 6.2 ×10⁻⁶ cm/s; Activity (Salmonella typhimurium [23]): Non-toxic; IC50 [24]: > 10000 nM; Papp B→A [25]: 9.9 ×10⁻⁶ cm/s; Activity (Salmonella typhimurium [26]): Non-toxic; Vdss (Rattus norvegicus): 3.7 L/kg; Activity (Salmonella typhimurium [27]): Non-toxic
